In patent publication US6586630B1, “Ethylamine derivatives” (Chugai Seiyaku Kabushiki Kaisha, priority 1998, dated 2003):
pIC50: −log10 of the molar value.

Legend:
[1] = tested on: motilin-induced contraction of longitudinal muscle in the duodenum; experiment: Contraction suppressing test: motilin-induced contraction of a specimen of longitudinal muscle in the duodenum extracted from a rabbit; type: cell-based; details: rabbit duodenum longitudinal muscle in organ bath, Krebs solution 28° C.; effect on dose-dependent contraction by motilin
Procedure: Action on the Contraction of a Specimen of Longitudinal Muscle in the Duodenum Extracted from a Rabbit
The action on the motilin-induced contraction of a specimen of longitudinal muscle in the duodenum extracted from a rabbit was investigated by the following method. A duodenum specimen extracted from a slaughtered rabbit (5×15 mm) was suspended in an organ bath (10 ml) such that the longitudinal muscle would run vertically; the bath was filled with a Krebs solution kept at 28° C. A mixed gas (95% O2 and 5% CO2) was continuously bubbled into the Krebs solution and the contraction of the duodenum specimen was recorded isotonically (with a 1-g load) via an isotonic transducer (ME-3407, ME Commercial, Tokyo, Japan). The degree of contraction was expressed in relative values, with the contraction by acetylcholine at a dose of 10^−4 M being taken as 100%. The activity of the compound was calculated as pA2 value indicating its effect on the dose-dependent muscle contraction by the motilin put into the organ bath.

Motilin receptor = target: T1, Motilin receptor (Oryctolagus cuniculus, UniProt G1T803); experiment: Motilin receptor binding test (125I motilin, rabbit duodenum protein sample); details: 125I motilin 25 pM, concentration reducing specific binding by 50%
T1 construct: had the mucous membrane separated and homogenized in 50 mM Tris buffer to prepare a protein sample; from tissue; host or cells: rabbit duodenum with the mucous membrane separated, homogenate
Procedure: Motilin Receptor Binding Test
A motilin receptor binding test was conducted in the following manner [Vantrappen et al., Regul. Peptides, 15, 143 (1986)]. The duodenum was extracted from a slaughtered rabbit, had the mucous membrane separated and homogenized in 50 mM Tris buffer to prepare a protein sample. The protein sample was incubated together with ^125I motilin 25 pM and thereafter the radioactivity bound to the protein was measured. Specific binding was defined as the difference between the radioactivity in the case of no adding and that in the case of adding a great excess amount of motilin (10^−7 M). The activity of the compound was expressed by IC50 (in nM), as the concentration sufficient to reduce the specific binding by 50%.

T1 sequence (G1T803 1-400): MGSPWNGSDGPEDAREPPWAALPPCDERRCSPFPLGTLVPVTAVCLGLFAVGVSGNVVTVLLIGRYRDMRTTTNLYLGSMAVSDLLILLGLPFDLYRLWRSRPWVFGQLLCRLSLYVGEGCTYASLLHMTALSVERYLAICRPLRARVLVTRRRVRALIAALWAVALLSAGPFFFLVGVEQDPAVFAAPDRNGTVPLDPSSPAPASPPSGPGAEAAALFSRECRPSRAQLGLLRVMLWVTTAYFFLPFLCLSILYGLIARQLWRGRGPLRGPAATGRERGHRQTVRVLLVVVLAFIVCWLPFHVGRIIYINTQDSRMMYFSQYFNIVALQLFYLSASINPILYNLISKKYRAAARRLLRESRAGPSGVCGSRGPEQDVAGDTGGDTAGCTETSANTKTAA

## CC(C)[C@@H](C(=O)NC(Cc1ccc(F)c(C(C)(C)C)c1)C(N)=O)N(C)C(=O)[C@@H](N)Cc1ccccc1 (single isomer, unassigned) [7 (A), Phe-N-Me-Val-Phe(3-tBu-4-F)—NH2]
[1]
  Contraction suppressing test, pA2: 7.58
Motilin receptor
  pIC50: 8.46
